# System: IgE antibodies from patients
# Experiment: Wheat epitope mapping (2): overlapping 10-amino-acid peptide fragments shifted by one amino acid;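 on Rank of partial sequence as epitope binding to IgE antibody: key = sequence deemed particularly important within the common 15-residue sequence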;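 on epitope sequence binding to IgE antibody, rank (Key/Preferably/More preferably): key of grades: preferably = shorter partial sequence still acting as epitope; more preferably = sequence improving IgE binding; key = particularly important sequence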
# Type: binding, human
# Summary of the method: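 Residual binding was banded as <30% none, 30–<50% poor, 50–<70% somewhat poor and ≥70% retained, relative to the parent overlapping sequence set to 100%. Values were chemiluminescent IgE signals from patient sera after subtracting secondary-antibody-only controls. The peptides were spot-synthesised 10-mers shifted by one amino acid.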
# [1] = serum of patient P16 (WDEIA), partial sequence
# [2] = serum of patient P26 (WDEIA), sequence without X
# [3] = serum of patient P14 (WDEIA), sequence without X
# [4] = serum of patient P27 (WDEIA), sequence without X
# [5] = serum of patient G7 (adult, general immediate type allergy to wheat), sequence without X
# [6] = serum of patient G9 (adult, general immediate type allergy to wheat), sequence without X
# [7] = serum of patient P35 (WDEIA), partial sequence
substance,measurement,setting,value
1828 (LEALPKFLK; REGION 1..9: note = epitope) [compound 1828],"epitope sequence binding to IgE antibody, rank (Key/Preferably/More preferably)","serum of patient G4 (adult, general immediate type allergy to wheat)",Key
2709 (YKIGGIGT; REGION 1..8: note = epitope) [compound 2709],"Epitope sequence binding to IgE antibody, rank of the sequence",[1],Preferably
1842 (TVRTLQ; REGION 1..6: note = epitope) [compound 1842],"epitope sequence binding to IgE antibody, rank (Key/Preferably/More preferably)",serum of patient P8 (WDEIA),Key
2700 (YKGPTL; REGION 1..6: note = epitope) [compound 2700],"Epitope sequence binding to IgE antibody, rank of the sequence","serum of patient G9 (adult, general immediate type allergy to wheat), partial sequence",Key
2268 (ERFEK; REGION 1..5: note = epitope) [compound 2268],"Epitope sequence binding to IgE antibody, rank of the sequence (Key/Preferably/More preferably)","serum of patient P5 (WDEIA), sequence without X",Key
1756 (VSSYLKK; REGION 1..7: note = epitope) [compound 1756],"epitope sequence binding to IgE antibody, rank (Key/Preferably/More preferably)",serum of patient P8 (WDEIA),Key
2287 (KRVIERFEK; REGION 1..9: note = epitope) [compound 2287],"Epitope sequence binding to IgE antibody, rank of the sequence (Key/Preferably/More preferably)",[2],Key
2519 (PSQLN; REGION 1..5: note = epitope) [compound 2519],"Epitope sequence binding to IgE antibody, rank of the sequence","serum of patient P53 (child, general immediate type allergy to wheat), partial sequence",Key
1532 (QVPLVQQQ; REGION 1..8: note = epitope) [compound 1532],Rank of partial sequence as epitope binding to IgE antibody,[3],Preferably
1882 (TVRTLQRT; REGION 1..8: note = epitope) [compound 1882],"epitope sequence binding to IgE antibody, rank (Key/Preferably/More preferably)",serum of patient P34 (WDEIA),Preferably
1247 (PIQQQP; REGION 1..6: note = epitope) [compound 1247],"Epitope sequence binding to IgE antibody, rank of the sequence","serum of patient P32 (WDEIA), sequence without X",Key
1628 (YNPDKVP; REGION 1..7: note = epitope) [compound 1628],Rank of partial sequence as epitope binding to IgE antibody,[4],Preferably
2704 (YKIGGI; REGION 1..6: note = epitope) [compound 2704],"Epitope sequence binding to IgE antibody, rank of the sequence","serum of patient P3 (WDEIA), partial sequence",Key
1914 (QQFPGQQ; REGION 1..7: note = epitope) [compound 1914],"epitope sequence binding to IgE antibody, rank (Key/Preferably/More preferably)",serum of patient P8 (WDEIA),Key
1719 (EAANF; REGION 1..5: note = epitope) [compound 1719],"epitope sequence binding to IgE antibody, rank (Key/Preferably/More preferably)",serum of patient P36 (WDEIA),Preferably
1422 (YLQPQQ; REGION 1..6: note = epitope) [compound 1422],"Epitope sequence binding to IgE antibody, rank of the sequence","serum of patient P10 (WDEIA), sequence without X",Preferably
1955 (QFPGQ; REGION 1..5: note = epitope) [compound 1955],"epitope sequence binding to IgE antibody, rank (Key/Preferably/More preferably)",serum of patient P26 (WDEIA),Key
1800 (KELEALPK; REGION 1..8: note = epitope) [compound 1800],"epitope sequence binding to IgE antibody, rank (Key/Preferably/More preferably)",serum of patient P17 (WDEIA),Key
2505 (SQVSF; REGION 1..5: note = epitope) [compound 2505],"Epitope sequence binding to IgE antibody, rank of the sequence",[1],Key
1236 (PQQPP; REGION 1..5: note = epitope) [compound 1236],"Epitope sequence binding to IgE antibody, rank of the sequence","serum of patient P21 (WDEIA), sequence without X",Key
1360 (INVEN; REGION 1..5: note = epitope) [compound 1360],"Epitope sequence binding to IgE antibody, rank of the sequence","serum of patient P51 (child, general immediate type allergy to wheat), sequence without X",Preferably
1374 (PWQQQPLP; REGION 1..8: note = epitope) [compound 1374],"Epitope sequence binding to IgE antibody, rank of the sequence","serum of patient P7 (WDEIA), sequence without X",Preferably
2373 (TEIV; REGION 1..4: note = epitope) [compound 2373],"Epitope sequence binding to IgE antibody, rank of the sequence (Key/Preferably/More preferably)",[2],Key
1365 (SINVEN; REGION 1..6: note = epitope) [compound 1365],"Epitope sequence binding to IgE antibody, rank of the sequence",[5],Preferably
1939 (QVPLVQQ; REGION 1..7: note = epitope) [compound 1939],"epitope sequence binding to IgE antibody, rank (Key/Preferably/More preferably)",serum of patient P21 (WDEIA),Preferably
1802 (SGKELEALPK; REGION 1..10: note = epitope) [compound 1802],"epitope sequence binding to IgE antibody, rank (Key/Preferably/More preferably)",serum of patient P18 (WDEIA),Preferably
2306 (GIDK; REGION 1..4: note = epitope) [compound 2306],"Epitope sequence binding to IgE antibody, rank of the sequence (Key/Preferably/More preferably)",[6],Key
1765 (YLKKVGYN; REGION 1..8: note = epitope) [compound 1765],"epitope sequence binding to IgE antibody, rank (Key/Preferably/More preferably)",serum of patient P30 (WDEIA),Key
2556 (QLVQQLCC; REGION 1..8: note = epitope) [compound 2556],"Epitope sequence binding to IgE antibody, rank of the sequence","serum of patient P20 (WDEIA), partial sequence",Key
1162 (SIDQNAQG; REGION 1..8: note = epitope) [compound 1162],"Epitope sequence binding to IgE antibody, rank of the sequence",[5],Further preferably
1886 (TVRTLQRT; REGION 1..8: note = epitope) [compound 1886],"epitope sequence binding to IgE antibody, rank (Key/Preferably/More preferably)",serum of patient P36 (WDEIA),Key
2384 (YVTEIVL; REGION 1..7: note = epitope) [compound 2384],"Epitope sequence binding to IgE antibody, rank of the sequence (Key/Preferably/More preferably)","serum of patient P29 (WDEIA), sequence without X",Preferably
2225 (VSRLLRGIRN; REGION 1..10: note = epitope) [compound 2225],"Epitope sequence binding to IgE antibody, rank of the sequence (Key/Preferably/More preferably)","serum of patient P17 (WDEIA), sequence without X",Key
2633 (KEAAEM; REGION 1..6: note = epitope) [compound 2633],"Epitope sequence binding to IgE antibody, rank of the sequence","serum of patient P7 (WDEIA), partial sequence",Preferably
2418 (TEIVL; REGION 1..5: note = epitope) [compound 2418],"Epitope sequence binding to IgE antibody, rank of the sequence (Key/Preferably/More preferably)",[5],Key
1170 (FPPQQP; REGION 1..6: note = epitope) [compound 1170],"Epitope sequence binding to IgE antibody, rank of the sequence","serum of patient P3 (WDEIA), sequence without X",Key
1726 (KEAANFTS; REGION 1..8: note = epitope) [compound 1726],"epitope sequence binding to IgE antibody, rank (Key/Preferably/More preferably)","serum of patient P51 (child, general immediate type allergy to wheat)",Preferably
1479 (YLQPQQPISQ; REGION 1..10: note = epitope) [compound 1479],Rank of partial sequence as epitope binding to IgE antibody,"serum of patient P33 (WDEIA), sequence without X",Preferably
1703 (EAANFT; REGION 1..6: note = epitope) [compound 1703],Rank of partial sequence as epitope binding to IgE antibody,[4],Key
1879 (TVRTLQ; REGION 1..6: note = epitope) [compound 1879],"epitope sequence binding to IgE antibody, rank (Key/Preferably/More preferably)",serum of patient P32 (WDEIA),Key
1684 (FVPISG; REGION 1..6: note = epitope) [compound 1684],Rank of partial sequence as epitope binding to IgE antibody,[6],Key
2227 (LLRGIRN; REGION 1..7: note = epitope) [compound 2227],"Epitope sequence binding to IgE antibody, rank of the sequence (Key/Preferably/More preferably)","serum of patient P18 (WDEIA), sequence without X",Key
1689 (SQVIIM; REGION 1..6: note = epitope) [compound 1689],Rank of partial sequence as epitope binding to IgE antibody,[3],Key
2328 (IIYSI; REGION 1..5: note = epitope) [compound 2328],"Epitope sequence binding to IgE antibody, rank of the sequence (Key/Preferably/More preferably)","serum of patient P34 (WDEIA), sequence without X",Key
2593 (QLVQ; REGION 1..4: note = epitope) [compound 2593],"Epitope sequence binding to IgE antibody, rank of the sequence",[7],Key
2592 (YQLVQQ; REGION 1..6: note = epitope) [compound 2592],"Epitope sequence binding to IgE antibody, rank of the sequence",[7],Preferably
1806 (ELEALPK; REGION 1..7: note = epitope) [compound 1806],"epitope sequence binding to IgE antibody, rank (Key/Preferably/More preferably)",serum of patient P22 (WDEIA),Key
2238 (LLRGIRNYRV; REGION 1..10: note = epitope) [compound 2238],"Epitope sequence binding to IgE antibody, rank of the sequence (Key/Preferably/More preferably)","serum of patient P31 (WDEIA), sequence without X",Key
2685 (YKGPTL; REGION 1..6: note = epitope) [compound 2685],"Epitope sequence binding to IgE antibody, rank of the sequence","serum of patient P27 (WDEIA), partial sequence",Preferably
1767 (KKVGYNP; REGION 1..7: note = epitope) [compound 1767],"epitope sequence binding to IgE antibody, rank (Key/Preferably/More preferably)",serum of patient P33 (WDEIA),Key

# Source: patent US20240393292A1, “ALLERGY ANTIGEN AND EPITOPE THEREOF” (HOYU CO., LTD., priority 2019, published 2024)
